The values that follow come from PubChem BioAssay (NCI).

Holding throughout (test): NCI-60 cell line screen, 48 h
For assay [1], the system named is HS 578T breast.
Assay [2] concerns UO-31 renal.
The subject of assay [3] is COLO 205 colon.
Assay [4] relates to SF-268 CNS.
Assay [5] relates to A498 renal.
The subject of assay [6] is HT29 colon.
The subject of assay [7] is NCI-H226 lung.
Assay [8] relates to IGROV1 ovarian.
In assay [9] the test system is RXF 393 renal.
The test system of assay [10] is SR leukemia.

Molecules are shown by their SMILES.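 Values below derive from 48-hour exposures of cells grown in 96-well plates, with endpoints linearly interpolated between the two concentrations bracketing the appropriate inhibition level. Abbreviation: GI50, concentration required for 50% inhibition of growth. TGI: total growth inhibition.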 Bounds are passed on as bounds.

In the case of `O=c1cc(N2CCNCC2)oc2c(-c3ccccc3)cccc12`, the GI50 in assay [1] is 9.75 µM; in assay [2], 24 µM; in assay [3], 11.3 µM; in assay [4], 46.3 µM; in assay [5], 25 µM; in [6], 24.8 µM. Besides, the results for the GI50 in [7] and in assay [8] were over 100 µM and 31.8 µM, respectively. Besides, the TGI in assay [1] was over 100 µM; in assay [2], over 100 µM; in assay [3], 27.8 µM; in assay [4], over 100 µM; in assay [5], 74.8 µM; in assay [6] it was over 100 µM. Moreover, the TGI in assay [7] and in assay [8] was over 100 µM each time.
As for `CC(C)(C)c1[nH]cnc1/C=c1\[nH]c(=O)/c(=C/c2ccccc2)[nH]c1=O`, the GI50 in assay [1] was under 0.01 µM; in assay [2] it was under 0.0144 µM; in assay [3] it was 0.013 µM; in [4] it was under 0.0123 µM; in [5], under 0.01 µM; in assay [6] it was under 0.01 µM. The GI50 was 0.0275 µM in assay [7], under 0.01 µM in assay [9] and 0.0134 µM in [8]. In addition, the TGI in [1] is over 71.8 µM; in assay [2], 27.6 µM; in assay [3], 0.101 µM; in assay [4] it was over 70.1 µM; in [5], 0.51 µM; in assay [6], 9.44 µM. In addition, the TGI in assay [7] is 3.69 µM; in assay [9], 56.8 µM; in assay [8], 24.2 µM.
On to `COc1ccc(C(=O)C(C(=O)C(=O)Nc2ccc(Cl)c(Cl)c2)c2ccc(OC)cc2)cc1` (centres undefined), for which the TGI in [2], in assay [4], in assay [5], in [6], in assay [7] and in assay [9] was over 100 µM each time. Besides, the TGI in assay [8] is over 100 µM.
For `Cc1c(C(=O)C/C(=N/NC(=O)C[n+]2ccccc2)C(=O)Nc2ccccc2)[n+](=O)c2ccccc2n1O`, the TGI in assay [2], in [3], in assay [4], in assay [5], in assay [10] and in [6] was over 100 µM throughout. The TGI in assay [7], in assay [9] and in assay [8] was over 100 µM each time.
Consider `COc1ccc(N=Nc2c(-c3ccccc3)nn(C(=O)CC(=O)Nc3cccc(Cl)c3)c2-c2ccccc2)cc1`, for which the TGI in [2] was over 100 µM; in assay [3] it was over 100 µM; in [4], over 100 µM; in [5] it was over 100 µM; in assay [6] it was over 100 µM; in [7], 68.1 µM. In [8], this compound gave a TGI of over 100 µM.
For the compound `Cn1c(O)c(C(/C=C/c2ccccc2)=NCCN=C(/C=C/c2ccccc2)c2c(O)n(C)c(=O)n(C)c2=O)c(=O)n(C)c1=O`, the GI50 in assay [1] is 13.4 µM; in assay [2] it was 23.3 µM; in assay [3], 17.3 µM; in [4] it was 15.1 µM; in assay [5] it was 16.6 µM; in [6], 16.9 µM. The GI50 was 24.6 µM in assay [7], 22.5 µM in assay [9] and 20.7 µM in [8]. Also, the TGI in assay [1] was 34.7 µM; in assay [2], over 50 µM; in assay [3], over 50 µM; in [4], over 50 µM; in assay [5] it was 40.7 µM; in [6], over 50 µM. Besides, the TGI in assay [7], in [9] and in assay [8] was over 50 µM each time.
As to `CC(C)(C)CC(C)(C)c1cc2c(O)c(c1)Cc1cc(C(C)(C)CC(C)(C)C)cc(c1O)Cc1cc(C(C)(C)CC(C)(C)C)cc(c1O)Cc1cc(C(C)(C)CC(C)(C)C)cc(c1O)Cc1cc(C(C)(C)CC(C)(C)C)cc(c1O)Cc1cc(C(C)(C)CC(C)(C)C)cc(c1O)C2`, the TGI in assay [2], in assay [3], in [4], in assay [6], in assay [9] and in [8] was over 100 µM throughout.
Regarding `C[C@]12CCc3nonc3C1CC[C@@H]1C2CC[C@]2(C)NC(=O)CCC12` (some centres undefined), the TGI in assay [2], in assay [3], in [4], in [5], in assay [6] and in [7] was over 100 µM each time. Also, the TGI in assay [9] and in assay [8] was over 100 µM throughout.
For the compound `O=C1N(c2ccccc2)C(=O)C2(SC=NN2Cc2ccccc2)N1c1ccccc1` (centres undefined), the TGI in assay [2], in assay [3], in assay [4], in assay [5], in assay [10] and in [6] was over 100 µM throughout. For the same compound, the TGI in assay [7], in assay [9] and in assay [8] was over 100 µM throughout.
Take `O=C(c1cc2ccccc2o1)N(Cc1ccccc1)c1ccccc1`: the TGI was 51.8 µM in [2]; 35.4 µM in assay [3]; over 100 µM in assay [4]; 89.1 µM in assay [5]; 68.4 µM in [10]; 66 µM in assay [6]. For the same compound, the TGI is 34.9 µM in assay [7], 43 µM in [9] and over 100 µM in assay [8].
Regarding `CC(=O)c1c(C)n(C)c2c1nnc1ccccc12`, the TGI in assay [1] was over 100 µM; in [2], 8.11 µM; in assay [3], over 100 µM; in assay [4], over 100 µM; in [5], over 100 µM; in assay [6], over 100 µM. Besides, the TGI in assay [7] and in assay [9] was over 100 µM each time.
As to `CC(=O)c1cccc(NC(=O)C(=O)C(C2OC(=O)c3ccccc32)[N+](=O)[O-])c1` (centres undefined), the TGI in assay [2], in [3], in [4], in assay [5], in assay [10] and in assay [6] was over 100 µM in each case. The TGI in assay [7], in assay [9] and in assay [8] was over 100 µM throughout.
